This note sets out measurements from US10167262B2, “Herbicidal substituted 3-arylpyrazoles” (FMC CORPORATION, priority 2014, dated 2019).

Type in all cases: in vivo
For test [1], the system named is barnyardgrass (Echinochloa crus-galli). Put plainly: Test B flooded paddy test, plant response rating 0-100. The note with it: Flood, 250 g ai/ha; scale 0 to 100 (0 no effect, 100 complete control); 13 to 15 days. The text has this:
(§1) At time of treatment, test pots were flooded to 3 cm above the soil surface, treated by application of test compounds directly to the paddy water, and then maintained at that water depth for the duration of the test. Treated plants and controls were maintained in a greenhouse for 13 to 15 days, after which time all species were compared to controls and visually evaluated. […] A dash (-) response means no test result.

For test [2], the system named is ducksalad (Heteranthera limosa). Described as above. Particulars: Flood, 250 g ai/ha; scale 0 to 100 (0 no effect, 100 complete control); 13 to 15 days.
Source text: as §1

In test [3] the test system is sedge, umbrella (small-flower umbrella sedge, Cyperus difformis). The description is as above. Particulars: Flood, 250 g ai/ha; scale 0 to 100 (0 no effect, 100 complete control); 13 to 15 days.
Source text: as §1

Another test has as its system rice (Oryza sativa). The test is described as above. The note with it: Flood, 250 g ai/ha; scale 0 to 100 (0 no effect, 100 complete control); 13 to 15 days.
Source text: as §1

Test [4] relates to barnyardgrass (Echinochloa crus-galli). Put plainly: Test A pre-/postemergence greenhouse herbicide test, visual injury rating 0-100. The note with it: 1000 g ai/ha. An excerpt:
(§2) Seeds of plant species selected from barnyardgrass (Echinochloa crus-galli), large (Lg) crabgrass (Digitaria sanguinalis), giant foxtail (Setaria faberii), morningglory (Ipomoea spp.), pigweed (Amaranthus retroflexus), velvetleaf (Abutilon theophrasti), wheat (Triticum aestivum), and corn (Zea mays) were planted into a blend of loam soil and sand and treated preemergence with a directed soil spray using test chemicals formulated in a non-phytotoxic solvent mixture which included a surfactant. At the same time these species were also treated with postemergence applications of test chemicals formulated in the same manner. Plants ranged in height from 2 to 10 cm and were in the one- to two-leaf stage for the postemergence treatment. Treated plants and untreated controls were maintained in a greenhouse for approximately 10 days, after which time all treated plants were compared to untreated controls and visually evaluated for injury. Plant response ratings, summarized in Table A, are based on a 0 to 100 scale where 0 is no effect and 100 is complete control. A dash (-) response means no test result.

Test [5] deals with wheat (Triticum aestivum). Described as above. Particulars: 1000 g ai/ha.
Source text: as §2

Test [6] has as its system velvetleaf (Abutilon theophrasti). The test is described as above. Particulars: 1000 g ai/ha.
Source text: as §2

Test [7] has as its system giant foxtail (Setaria faberii). Described as above. Particulars: 1000 g ai/ha.
Source text: as §2

Test [8] deals with large (Lg) crabgrass (Digitaria sanguinalis). The description is as above. Particulars: 1000 g ai/ha.
Source text: as §2

A further test concerns corn (Zea mays). The description is as above. The note with it: 1000 g ai/ha.
Source text: as §2

Test [9] concerns pigweed (Amaranthus retroflexus). Described as above. The note with it: 1000 g ai/ha.
Source text: as §2

Test [10] has as its system morningglory (Ipomoea spp.). The test is described as above. The note with it: 1000 g ai/ha.
Source text: as §2

Consider `Cn1cc(C(=O)c2ccccc2)c(-c2cc(F)cc(Cl)c2)n1` [Compound 47], for which, in [1], the “Plant response rating, Barnyardgrass” value is reported as 0. For the same compound, the “Plant response rating, Ducksalad” value in [2] was found to be 0. Further, the “Plant response rating, Sedge, Umbrella” value in test [3] came out at 0. Besides, the “Plant response rating, Rice” value in the test on rice (Oryza sativa) is recorded as 0. For the same compound, the “Plant response rating (0 to 100 scale), Barnyardgrass” value in test [4] (Postemergence) and in test [4] (Preemergence) was 0 each time. Moreover, the “Plant response rating (0 to 100 scale), Wheat” value (“Plant response rating … Wheat” for short) in test [5] (Postemergence) and in [5] (Preemergence) was 0 in each case. Besides, the “Plant response rating (0 to 100 scale), Velvetleaf” value (from here on “Plant response rating … Velvetleaf”) in test [6] (Postemergence) and in [6] (Preemergence) was 90 throughout. The “Plant response rating (0 to 100 scale), Foxtail, Giant” value (shortened to “Plant response rating … Giant”) in test [7] (Postemergence) and in test [7] (Preemergence) was 0 each time. Moreover, the “Plant response rating (0 to 100 scale), Crabgrass, Large” value (“Plant response rating … Large” for short) in test [8] (Postemergence) and in [8] (Preemergence) was 0 in each case. The “Plant response rating (0 to 100 scale), Corn” value (“Plant response rating … Corn” below) with corn (Zea mays) (Postemergence) and with corn (Zea mays) (Preemergence) was 0 each time. Also, the results for the “Plant response rating (0 to 100 scale), Pigweed” value (“Plant response rating … Pigweed” below) in test [9] (Postemergence) and in test [9] (Preemergence) were 90 and 80, respectively.

Consider `CCn1cc(C(=O)c2ccccc2)c(-c2cc(Cl)c(Cl)c(Cl)c2)n1` [Compound 12], for which the “Plant response rating, Ducksalad” value in [2] stood at 20. Also, the “Plant response rating, Sedge, Umbrella” value in test [3] turned out to be 70. Further, in the test on rice (Oryza sativa), the “Plant response rating, Rice” value was determined as 0. Moreover, the “Plant response rating (0 to 100 scale), Barnyardgrass” value in test [4] (Postemergence) and in [4] (Preemergence) was 0 throughout. Besides, the “Plant response rating (0 to 100 scale), Morningglory” value in test [10] (Postemergence) and in [10] (Preemergence) was 0 each time. Also, the “Plant response rating … Wheat” value in test [5] (Postemergence) and in test [5] (Preemergence) was 0 in each case. In addition, the entries for the “Plant response rating … Velvetleaf” value in [6] (Postemergence) and in test [6] (Preemergence) were 80 and 70, respectively. The “Plant response rating … Giant” value in test [7] (Postemergence) and in [7] (Preemergence) was 0 throughout. For the same compound, the “Plant response rating … Large” value in [8] (Postemergence) and in [8] (Preemergence) was 0 each time. Also, the “Plant response rating … Corn” value with corn (Zea mays) (Postemergence) and in the test with corn (Zea mays) (Preemergence) was 0 throughout. Further, the “Plant response rating … Pigweed” value worked out at 90 in [9] (Postemergence) and 80 in test [9] (Preemergence).

`Cn1cc(C(=O)c2ccccc2)c(-c2cc(Cl)c(Cl)c(Cl)c2)n1` [Compound 11]: the “Plant response rating, Ducksalad” value in test [2] is 0. The “Plant response rating, Sedge, Umbrella” value in [3] was 0. In the test with rice (Oryza sativa), the “Plant response rating, Rice” value is given as 0. In addition, the “Plant response rating (0 to 100 scale), Barnyardgrass” value in test [4] (Postemergence) and in [4] (Preemergence) was 0 each time. Further, the “Plant response rating (0 to 100 scale), Morningglory” value in test [10] (Postemergence) and in test [10] (Preemergence) was 0 each time. Besides, the “Plant response rating … Wheat” value in test [5] (Postemergence) and in test [5] (Preemergence) was 0 throughout. Further, the “Plant response rating … Velvetleaf” value was 80 in test [6] (Postemergence) and 70 in test [6] (Preemergence). The “Plant response rating … Giant” value in test [7] (Postemergence) and in test [7] (Preemergence) was 0 throughout. Further, the “Plant response rating … Large” value in [8] (Postemergence) and in test [8] (Preemergence) was 0 each time. Besides, the “Plant response rating … Corn” value in the test with corn (Zea mays) (Postemergence) and in the test on corn (Zea mays) (Preemergence) was 0 throughout. Moreover, the “Plant response rating … Pigweed” value in test [9] (Postemergence) and in test [9] (Preemergence) was 90 in each case.
